# In patent US20250032506A1, “GLUCOCORTICOID RECEPTOR BLOCKADE WITH MIFEPRISTONE TO SENSITIZE PANCREATIC CANCER TO IMMUNOTHERAPY” (BOARD OF REGENTS, THE UNIVERSITY OF TEXAS SYSTEM, priority 2021, published 2025):
# Columns and labels:
# [1] = test system: orthotopic HY24409 tumors; assay: Flow cytometric analysis and multiplex immunofluorescent staining of tumors or spleens from mice treated with mifepristone and dual ICB; type: in vivo, mouse
# Description: Cancer Discov 10, 1374-1387 (2020). […] CyTOF data were analyzed by FlowJo and Cytobank.
# Immunity 54, 1561-1577 e1567 (2021).
# [2] = test system: orthotopic HY24409 tumors; assay: Immune checkpoint blockade experiments in male C57BL/6 mice bearing orthotopic HY24409 tumors; type: in vivo, mouse; settings: compared with the vehicle+IgG control
# Description: (§1) Orthotopic pancreatic tumor size was determined by MRI. Subcutaneous tumor size was measured with a caliper. […] Animal body weight was measured throughout the study.
# BXPC-3 cells = assay: qPCR and immunoblotting of PD-L1 and MHC-I in BXPC-3 cells; type: cell-based, human; settings: MIFE 20 μM (qPCR) or indicated doses (immunoblot), 72 h
# Source text: The male PDAC cell lines HY24409 and HY24160 and the female PDAC cell line HY19636 were established from KPC mice (p48-Cre; Kras^LSL-G12D/+; Trp53^loxP/+) that were backcrossed to a C57BL/6 background (purity: ˜ 98%). (See Bardeesy, N., et al. supra). The human PDAC cell lines SU86.86 ([…]), SW1990 ([…]), BXPC-3 ([…]), Miapaca-2 ([…]), Capan-1 ([…]), ASPC-1 ([…]), Hs766T ([…]), Colo357/FG ([…]), L3.6PL ([…]), Panc28 ([…]), Capan-2 ([…]), CF-Pac-1 ([…]), Panc3 (sex unknown), Panc1 ([…]), Panc48 (sex unknown), and HPAC ([…]) were from Mien-Chie Hung's lab stock. The HY24409, HY24160, HY19636, SU86.86, SW1990, and Hs766T cell lines were cultured in RPMI 1640 (Corning, 10-041-CV) supplemented with 10% fetal bovine serum (FBS) (Gibco, 10438-034) and 1% penicillin/streptomycin (Sigma, P4333). The BXPC-3, Miapaca-2, Capan-1, ASPC-1, Colo357/FG, L3.6PL, Panc28, Capan-2, CF-Pac-1, Panc3, Panc1, Panc48, and HPAC cell lines were cultured in DMEM/F-12 (Corning, 10-092-CV) supplemented with 10% FBS and 1% penicillin/streptomycin. Cells were grown in a humidified incubator with 5% CO2 at 37° C., and low-passage stocks were maintained in a centralized lab cell bank. Short tandem repeat profiling and mycoplasma tests were done by the Cytogenetics and Cell Authentication Core at MD Anderson Cancer Center. […]
# [3] = test system: orthotopic HY24160 tumors
# Description: as §1
# [4] = relative to the control group, either with or without co-treatment with dual ICB
# [5] = flow cytometry and qPCR, HY24160 tumors
smiles,measurement,setting,value
CC#C[C@]1(O)CC[C@H]2[C@@H]3CCC4=CC(=O)CCC4=C3[C@@H](c3ccc(N(C)C)cc3)C[C@@]21C [mifepristone],tumor infiltration by CD8+ T cells and granzyme B+ CTLs,"[1]; flow cytometric analysis and multiplex immunofluorescent staining, HY24409 tumors",increase
same,cell-surface MHC-I (H-2K^b) and B2M in tumor cells,[1]; [4],increase
same,cell-surface PD-L1 in tumor cells,[1]; [4],decrease
same,survival,[2],did not lead to a significant improvement in survival
same,MHC-I at both mRNA and protein levels,BXPC-3 cells,significantly upregulated
same,PD-L1 at both mRNA and protein levels,BXPC-3 cells,downregulated
same,tumor growth,"[3]; C57BL/6 mice, orthotopic HY24160, CTL-dependent manner",inhibited tumor growth
same,MHC-I expression levels,[3]; [5],upregulated
same,expression levels of PD-L1 and known GR-activated genes,[3]; [5],downregulated
same,body weight,"[3]; mouse, in vivo",without affecting body weight
same,infiltration and activity of cytotoxic T cells,"[3]; mouse, in vivo",promoted
